Where two headings read alike, the source gives them in different places.
Columns and labels:
MIAPaCa-2/AMG510 cells = experiment: Proliferation assay, cells in adhesion; assay type: cell-based; settings: for IC50: Homo sapiens
MIAPaCa-2 cells = experiment: Proliferation assay, cells in adhesion; assay type: cell-based; settings: for IC50: Homo sapiens
KG-1 cells = experiment: Long term proliferation assay, Cell Titer-Glo read-out; assay type: cell-based; settings: for IC50: Homo sapiens
Experimental: (§1) Compounds of invention are tested in the 5 suspension lines by 14-day long-term proliferation assay.
(§2) The compound is tested in 10-pt dose titration (client will determine the starting concentration and the dilution scheme) and the final DMSO concentration is kept at 0.2%.
(§3) On Day 0, in a flat bottom 96-well plate, add 100 μL of cells per well at the densities optimized. Prepare compounds in DMSO at 500× final concentration. Dilute the compounds with DMSO at the dilution. Dilute the compounds in media at 3× final concentration. Add 50 μL of compound or DMSO at 3× final concentration to each well. Final volume in each well is 150 μL, and final concentration of DMSO is 0.2%. Also include 3 untreated control wells, by adding 50 μL of media alone. Incubate plates for 96 hours.
(§4) To do this take the total viable cell count calculated using step: • 1. Take the average of the replicates for each dose in order to be used in splitting the cells. • 2. Use a 96 well V-bottom plate to spin down the cells to remove old media and compound to split the cells. • 3. Based on the split ratio place the proper amount of media and cells into the V-bottom plate, and spin the plate at 1100 rpm for 5 minutes. • 4. Following the spin remove the media, careful not to disturb the cell pellet. Re-suspend pellet in 100 μL fresh media, and add to a new 96-well flat bottom plate. • 5. Add fresh compound, in the same manner as Step 3). • 6. Incubate plates for 72 hours. Repeat steps 5)-10) on Day 7. • 7. Incubate plates for 96 hours. Repeat Step 5)-10) on Day 11. • 8. Incubate 72 hours and repeat step 5) to take a final count. • 9. Data Analysis
(§5) To calculate growth for days 4, 7, 11, and 14: • 1. Calculate the split factor for day 4 to 7, day 7 to 11, and day 11-14. The split factor is the viable cells/mL on Day X (either 4, 7 or 11) divided by the density the cells are being split back to. • 2. For growth of cells from day 4 to 7, multiply the day 7 viable cells/mL density by the split factor from day 4. • 3. For growth of cells from day 7 to 11, multiply the day 11 viable cells/mL density by the days 4, and 7 split factors. • 4. For growth of cells from Day 11 to 14, multiply the Day 14 viable cells/mL density by the days 4, 7, and 11 split factors. • 5. Plot growth on semi-log chart (viable cells/mL on Y axis, in log, and days on X axis). • 6. The growth inhibition was calculated with the formula ((untreated cell numbers-treated cell numbers)/untreated cell)). • 7. Calculate the IC50 for each compound in each line using XLFit (Sigmoidal Dose-Response Model, y=(Bottom+((Top-Bottom)/(1+((IC50/×)^Hill))))).

OCI-AML-3 cells = experiment: as above; assay type: cell-based; settings: for IC50: Homo sapiens; for % max: OCI-AML3
Experimental: as §1, §2, §3, §4, §5

MV4-11 cells = experiment: Long term proliferation assay, InCell read-out; assay type: cell-based, human; settings: for IC50: Homo sapiens
Experimental: as §1, §2, §3, §4, §5

MOLM-13 cells = experiment: Long term proliferation assay, InCell read-out; assay type: cell-based, human; settings: for IC50: Homo sapiens
Experimental: as §1, §2, §3, §4, §5

Panc 10.05 cells = experiment: Proliferation assay, cells in adhesion; assay type: cell-based; settings: for IC50: Homo sapiens
SK-LU-1/AMG510 cells = experiment: Proliferation assay, cells in adhesion; assay type: cell-based; settings: for IC50: Homo sapiens

C=CC(=O)NC1CCCN(Cc2ccnc(C(=O)Nc3ccc(-c4cc5c(N6CCOCC6)ncnc5[nH]4)cc3)c2)C1 (centres unmarked) [Compound 10]
IC50 (MIAPaCa-2/AMG510 cells; MIA PaCa-2, MIAPaCa-2/AMG510, T4, read-out: IC50): 300 nM
IC50 (MIAPaCa-2/AMG510 cells; MIA PaCa-2, MIAPaCa-2/AMG510, T4, read-out: pIC50 (converted)): 295 nM
IC50 (MIAPaCa-2/AMG510 cells; MIA PaCa-2, MIAPaCa-2/AMG510, T7, read-out: IC50): 170 nM
IC50 (MIAPaCa-2/AMG510 cells; MIA PaCa-2, MIAPaCa-2/AMG510, T7, read-out: pIC50 (converted)): 166 nM
IC50 (MIAPaCa-2/AMG510 cells; MIAPaCa-2/AMG510, T11, read-out: IC50): 150 nM
IC50 (MIAPaCa-2/AMG510 cells; MIAPaCa-2/AMG510, T11, read-out: pIC50 (converted)): 151 nM
% max (MIAPaCa-2/AMG510 cells; MIAPaCa-2/AMG510, T4): 92%
% max (MIAPaCa-2/AMG510 cells; MIAPaCa-2/AMG510, T7): 98%
% max (MIAPaCa-2/AMG510 cells; MIAPaCa-2/AMG510, T11): 99%
IC50 (MIAPaCa-2 cells; MIA PaCa-2, MIAPaCa-2, T4, read-out: IC50): 270 nM
IC50 (MIAPaCa-2 cells; MIA PaCa-2, MIAPaCa-2, T4, read-out: pIC50 (converted)): 269 nM
IC50 (MIAPaCa-2 cells; MIA PaCa-2, MIAPaCa-2, T7, read-out: IC50): 230 nM
IC50 (MIAPaCa-2 cells; MIA PaCa-2, MIAPaCa-2, T7, read-out: pIC50 (converted)): 229 nM
IC50 (MIAPaCa-2 cells; MIA PaCa-2, MIAPaCa-2, T11, read-out: IC50): 220 nM
IC50 (MIAPaCa-2 cells; MIA PaCa-2, MIAPaCa-2, T11, read-out: pIC50 (converted)): 219 nM
% max (MIAPaCa-2 cells; MIAPaCa-2, T4): 96%
% max (MIAPaCa-2 cells; MIAPaCa-2, T7): 98%
% max (MIAPaCa-2 cells; MIAPaCa-2, T11): 99%
IC50 (KG-1 cells; 96 h, Day 4, Cell Titer-Glo, read-out: Day 4 IC50): 470 nM
IC50 (KG-1 cells; 168 h, Day 7, Cell Titer-Glo, read-out: Day 7 IC50): 330 nM
IC50 (KG-1 cells; 264 h, Day 11, Cell Titer-Glo, read-out: Day 11 IC50): 270 nM
IC50 (KG-1 cells; 336 h, Day 14, Cell Titer-Glo, read-out: Day 14 IC50): 240 nM
IC50 (KG-1 cells; T4, CellTiter-Glo, read-out: IC50): 470 nM
IC50 (KG-1 cells; T4, CellTiter-Glo, read-out: pIC50 (converted)): 468 nM
IC50 (KG-1 cells; T11, CellTiter-Glo, read-out: IC50): 270 nM
IC50 (KG-1 cells; T11, CellTiter-Glo, read-out: pIC50 (converted)): 269 nM
% max (KG-1 cells; T4, CellTiter-Glo): 99%
% max (KG-1 cells; T11, CellTiter-Glo): 99%
IC50 (OCI-AML-3 cells; OCI-AML-3, 96 h, OCI-AML-3, Day 4, Cell Titer-Glo, read-out: Day 4 IC50): 190 nM
IC50 (OCI-AML-3 cells; OCI-AML-3, 168 h, OCI-AML-3, Day 7, Cell Titer-Glo, read-out: Day 7 IC50): 140 nM
IC50 (OCI-AML-3 cells; OCI-AML-3, 264 h, OCI-AML-3, Day 11, Cell Titer-Glo, read-out: Day 11 IC50): 100 nM
IC50 (OCI-AML-3 cells; OCI-AML-3, 336 h, OCI-AML-3, Day 14, Cell Titer-Glo, read-out: Day 14 IC50): 120 nM
IC50 (OCI-AML-3 cells; OCI-AML-3, OCI-AML3, T4, CellTiter-Glo, read-out: IC50): 190 nM
IC50 (OCI-AML-3 cells; OCI-AML-3, OCI-AML3, T4, CellTiter-Glo, read-out: pIC50 (converted)): 191 nM
IC50 (OCI-AML-3 cells; OCI-AML-3, OCI-AML3, T11, CellTiter-Glo, read-out: IC50): 100 nM
IC50 (OCI-AML-3 cells; OCI-AML-3, OCI-AML3, T11, CellTiter-Glo, read-out: pIC50 (converted)): 100 nM
% max (OCI-AML-3 cells; T4, CellTiter-Glo): 99%
% max (OCI-AML-3 cells; T11, CellTiter-Glo): 99%
IC50 (MV4-11 cells; MV4-11, 96 h, MV4-11, Day 4, read-out: Day 4 IC50): 170 nM
IC50 (MV4-11 cells; MV4-11, 264 h, MV4-11, Day 11, read-out: Day 11 IC50): 170 nM
IC50 (MV4-11 cells; MV4-11, MV4-11, T4, read-out: IC50): 170 nM
IC50 (MV4-11 cells; MV4-11, MV4-11, T4, read-out: pIC50 (converted)): 174 nM
IC50 (MV4-11 cells; MV4-11, MV4-11, T11, read-out: IC50): 170 nM
IC50 (MV4-11 cells; MV4-11, MV4-11, T11, read-out: pIC50 (converted)): 174 nM
% max (MV4-11 cells; MV4-11, T4): 90%
% max (MV4-11 cells; MV4-11, T11): 90%
IC50 (MOLM-13 cells; MOLM-13, 96 h, MOLM-13, Day 4, read-out: Day 4 IC50): 80 nM
IC50 (MOLM-13 cells; MOLM-13, 264 h, MOLM-13, Day 11, read-out: Day 11 IC50): 90 nM
IC50 (MOLM-13 cells; MOLM-13, MOLM-13, T4, read-out: IC50): 80 nM
IC50 (MOLM-13 cells; MOLM-13, MOLM-13, T4, read-out: pIC50 (converted)): 77.6 nM
IC50 (MOLM-13 cells; MOLM-13, MOLM-13, T11, read-out: IC50): 90 nM
IC50 (MOLM-13 cells; MOLM-13, MOLM-13, T11, read-out: pIC50 (converted)): 91.2 nM
% max (MOLM-13 cells; MOLM-13, T4): 98%
% max (MOLM-13 cells; MOLM-13, T11): 98%
IC50 (Panc 10.05 cells; Panc1005, Panc 10.05, T4, read-out: IC50): 790 nM
IC50 (Panc 10.05 cells; Panc1005, Panc 10.05, T4, read-out: pIC50 (converted)): 794 nM
IC50 (Panc 10.05 cells; Panc1005, Panc 10.05, T7, read-out: IC50): 490 nM
IC50 (Panc 10.05 cells; Panc1005, Panc 10.05, T7, read-out: pIC50 (converted)): 490 nM
IC50 (Panc 10.05 cells; Panc1005, Panc 10.05, T11, read-out: IC50): 280 nM
IC50 (Panc 10.05 cells; Panc1005, Panc 10.05, T11, read-out: pIC50 (converted)): 282 nM
% max (Panc 10.05 cells; Panc 10.05, T4): 84%
% max (Panc 10.05 cells; Panc 10.05, T7): 97%
% max (Panc 10.05 cells; Panc 10.05, T11): 99%
IC50 (SK-LU-1/AMG510 cells; SK-LU-1, SK-LU-1/AMG510, T4, read-out: IC50): 720 nM
IC50 (SK-LU-1/AMG510 cells; SK-LU-1, SK-LU-1/AMG510, T7, read-out: IC50): 450 nM
IC50 (SK-LU-1/AMG510 cells; SK-LU-1, SK-LU-1/AMG510, T7, read-out: pIC50 (converted)): 447 nM
IC50 (SK-LU-1/AMG510 cells; SK-LU-1/AMG510, T11, read-out: IC50): 390 nM
IC50 (SK-LU-1/AMG510 cells; SK-LU-1/AMG510, T11, read-out: pIC50 (converted)): 389 nM
% max (SK-LU-1/AMG510 cells; SK-LU-1/AMG510, T4): 83%
% max (SK-LU-1/AMG510 cells; SK-LU-1/AMG510, T7): 95%
% max (SK-LU-1/AMG510 cells; SK-LU-1/AMG510, T11): 98%
